In patent EP2441755A1 (Almirall, S.A., priority 2010, dated 2012):
Like-named read-outs stand apart in the source and are kept apart here.

What was measured:
JAK3 (aa 795-1124) = biological target: T1, JAK3 (aa 795-1124) (Homo sapiens, UniProt P52333); test: In vitro JAK kinase assay (TR-FRET), JAK3; type: biochemical; conditions: ATP 0.6 µM, poly (GT)-Biotin 140 nM, 30 minutes at room temperature
T1 construct: JAK3 (aa 795-1124); GST (N); purchased Carna Bioscences; host or cells: baculovirus expression system
T1 sequence (P52333 795-1124): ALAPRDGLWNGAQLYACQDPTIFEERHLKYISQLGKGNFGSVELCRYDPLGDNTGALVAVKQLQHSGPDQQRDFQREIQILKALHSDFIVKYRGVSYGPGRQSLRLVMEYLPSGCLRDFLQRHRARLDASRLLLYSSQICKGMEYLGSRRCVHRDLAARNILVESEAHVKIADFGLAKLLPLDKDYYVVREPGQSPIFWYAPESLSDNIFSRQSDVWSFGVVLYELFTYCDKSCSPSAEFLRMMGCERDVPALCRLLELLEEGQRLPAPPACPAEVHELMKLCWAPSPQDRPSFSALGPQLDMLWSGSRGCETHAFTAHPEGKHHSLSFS
Method: (§1) In vitro JAK kinase Assays
(§2) Compounds were screened for their ability to inhibit JAK1, JAK2 and JAK3 using the assays as indicated below.
(§3) The catalytic domains of human JAK1 (aa 850-1154), JAK2 (aa 826-1132), JAK3 (aa 795-1124) and Tyk2 (aa 871-1187) were expressed as N-terminal GST-fusion proteins using a baculovirus expression system and were purchased from Carna Bioscences. The enzymatic activity was assayed using as substrate a biotinylated peptide, poly (GT)-Biotin (CisBio). The peptide concentration in the reactions was 60 nM for JAK1, 20 nM for JAK2, 140 nM for JAK3 and 50 nM for Tyk2. The degree of phosphorylation was detected by TR-FRET (time-resolved fluorescence energy transfer).
(§4) IC50s of compounds were measured for each kinase in a reaction mixture containing the enzyme, ATP and the peptide in 8 mM MOPS (pH 7.0), 10 mM MgCl2, 0.05% β-mercaptoethanol, 0.45 mg/mL BSA. The ATP concentration in the reactions was 3 µM for JAK1, 0.2 µM for JAK2, 0.6 µM for JAK3 and 1.8 µM for Tyk2. The enzymatic reactions took place for 30 minutes at room temperature. Then, the reactions were stopped with 20 µL of quench detection buffer (50 mM HEPES, 0.5 M KF, EDTA 0.25 M, 0.1% (w/v) BSA, pH 7.5) containing 0.115 µg/mL of anti-phosphoTyr (PT66)-Cryptate (CisBio) and a variable concentration of SA-XL665 (CisBio) to keep the SA-B ratio constant. Incubate for 3 h and read on Victor 2V spectrofluorometer (PerkinElmer) set to read fluorescence resonance energy transfer.

JAK2 (aa 826-1132) = biological target: T2, JAK2 (aa 826-1132) (Homo sapiens, UniProt O60674); test: In vitro JAK kinase assay (TR-FRET), JAK2; type: biochemical; conditions: ATP 0.2 µM, poly (GT)-Biotin 20 nM, 30 minutes at room temperature
T2 construct: JAK2 (aa 826-1132); GST (N); purchased Carna Bioscences; host or cells: baculovirus expression system
T2 sequence (O60674 826-1132): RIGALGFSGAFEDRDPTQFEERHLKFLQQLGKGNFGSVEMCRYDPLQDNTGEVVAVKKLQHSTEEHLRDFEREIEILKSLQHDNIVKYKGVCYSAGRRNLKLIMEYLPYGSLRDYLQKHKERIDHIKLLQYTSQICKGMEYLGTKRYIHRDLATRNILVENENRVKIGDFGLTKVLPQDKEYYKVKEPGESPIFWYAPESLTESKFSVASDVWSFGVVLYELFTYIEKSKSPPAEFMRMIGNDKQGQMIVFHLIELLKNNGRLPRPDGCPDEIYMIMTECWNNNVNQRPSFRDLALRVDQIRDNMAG
Method: as §1, §2, §3, §4

human JAK1 (aa 850-1154) = biological target: T3, human JAK1 (aa 850-1154) (Homo sapiens, UniProt P23458); test: In vitro JAK kinase assay (TR-FRET), JAK1; type: biochemical; conditions: ATP 3 µM, poly (GT)-Biotin 60 nM, 30 minutes at room temperature
T3 construct: human JAK1 (aa 850-1154); GST (N); purchased Carna Bioscences; host or cells: baculovirus expression system
T3 sequence (P23458 850-1154): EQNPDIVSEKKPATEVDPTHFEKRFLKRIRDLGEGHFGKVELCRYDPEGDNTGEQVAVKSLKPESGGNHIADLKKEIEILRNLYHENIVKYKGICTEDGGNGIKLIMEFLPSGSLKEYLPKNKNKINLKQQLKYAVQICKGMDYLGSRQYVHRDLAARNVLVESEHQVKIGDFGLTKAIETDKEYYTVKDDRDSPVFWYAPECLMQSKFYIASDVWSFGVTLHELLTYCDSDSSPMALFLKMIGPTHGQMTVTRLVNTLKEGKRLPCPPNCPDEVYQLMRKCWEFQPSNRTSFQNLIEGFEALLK
Method: as §1, §2, §3, §4

[1] = biological target: T4, Recombinant human full-length Syk (Homo sapiens, UniProt P43405); test: Syk enzyme assay - radioactive filtration kinase assay; type: biochemical
T4 construct: Recombinant human full-length Syk was supplied by Millipore; purchased Millipore
Method: Syk Enzyme assay- Radioactive filtration kinase assay
Recombinant human full-length Syk was supplied by Millipore. The activity of Syk kinase was assessed using a radioactive filtration kinase assay. […] The reaction was initiated by the addition of 14.5 µl of 0.36 µCi [γ-^33P] ATP (10 mCi/ml, PerkinElmer). This was prepared in a half-area NBS plate (Corning) and allowed to stand at room temperature for 40 min. 15 µl of reaction mixture was transferred to a filter plate (Millipore) previously pre-wetted with a solution of 75 mM phosphoric acid. The reaction was terminated with the addition of 200 µl phosphoric acid. The filter plate was washed three times under vacuum on a vacuum manifold (Millipore cat# MSVMHTS00) at 8" Hg vacuum level with 200 µl phosphoric acid per wash. 30 µl Optiphase™ Supermix (PerkinElmer) was added to each test well and allowed to incubate for at least 1 h before counting. Radioactivity counting was performed in a Wallac MicroBeta®, and the tyrosine phosphorylation activity by Syk was calculated.

LAD2 cells = LAD2 cells assay (degranulation, β-hexosaminidase release); type: cell-based; conditions: Homo sapiens, 0.5 h; IgE-sensitized LAD2 cells, 30 min with compound, activated with 125 ng/ml streptavidin; released β-hexosaminidase; read-out: LAD2IC50
From the text: LAD2 is a human mast cell line depending on stem cell factor for its survival, maturation and differentiation. This mast cell line was established by the NIH from bone marrow aspirates from a patient with mast cell sarcoma. LAD2 cells resemble CD34+ - derived human mast cells as they have granules containing tryptase, histamine and β-hexosaminidase. They also express c-kit and FcεRI (Kirshenbaum, et al., Leukemia Research 27: 677-682, 2003).
Sensitization of LAD2 cells
Cells were sensitized (0.2x10^6 cells/ml) in its normal growth factor (Complete StemPro-34 SFM, Gibco 10639-011 containing StemPro-34 nutrient supplement (1/40); glutamine (2 mM) and supplemented with 100 ng/ml SCF) by adding 100 ng/ml of biotin-labeled IgE (USBiological) overnight (16-18 h, 37º, 5% CO2) in a humidified atmosphere (90%).
Compounds were prepared from a 10^-2M stock in 100% DMSO to give seven successive 1/3 dilutions in DMSO. From each concentration, 2 further 1/10 dilutions were prepared in release buffer (137 mM NaCl, 2.70 mM KCI, 0.4 mM NaH2PO4, 5.6 mM (D)-glucose, 1.8 mM CaCl2, 1.3 mM MgSO4, 0.025% BSA). Finally, 5 µl from each diluted concentration were transferred into the assay plate (flat 96-well Nunc). The final compound concentrations tested ranged from 1x10^-5M to […] with a final proportion of DMSO in the assay of 0.1 %. Control wells were treated with 0.1 % DMSO.
Sensitized LAD2 cells were centrifuged (300 g, 3 min, R.T.) and washed 2 times with release buffer. Cells were resuspended in release buffer and adjusted to a density of 0.2x10^6/ml. 45 µl of the adjusted cells were transfered to the assay plate (∼10,000cells/well) containg 5 µl of the final compound concentrations. LAD2 cells were incubated with the compound for 30 min (37 °C, 5% CO2 90% of humidity) and then activated with 125 ng/ml of streptavidin (Pierce 21125) for 30 min (37 °C, 5% CO2, 90% of humidity). After the activation, cells were centrifuged at 1200 g, 10 min, 12 °C and supernatats were removed and transfered to another well for determination of released β-hexosaminidase. Empty wells were filled with 50 µl of release buffer for determination of intracellular β-hexosaminidase. Cells were lysed with 2 cycles of freeze-thaw.
Cells were incubated for 90 minutes, 37 °C with 1 mM β-hexosaminidase substrate (p-nitrophenyl N-acetyl-D-glucosamide, in citric buffer, pH 4.5). Reaction was stopped with 0.4 M glycine solution (pH 10.0) and the plate is read immediately at 405 nm.

[2] = Syk 1nM final, poly-GT 100 µg/ml, [γ-33P] ATP, 40 min at room temperature, read-out: Syk IC50

Compound `COc1cccc(CC(=O)Nc2cc(Nc3cnccn3)nc(-c3ccnc(N4CCNCC4)c3)c2)c1` [Example 78, 2-(3-Methoxyphenyl)-N-[2'-piperazin-1-yl-6-(pyrazin-2-ylamino)-2,4'-bipyridin-4-yl]acetamide] has an IC50 (JAK3 (aa 795-1124)) of 100 to 1000 nM, an IC50 (JAK2 (aa 826-1132)) of less than 100 nM and an IC50 (human JAK1 (aa 850-1154)) greater than 1000 nM.

`O=C(O)c1ccc(C(=O)Nc2cc(Nc3cnccn3)nc(-c3ccnc(N4CCNCC4)c3)c2)cc1` [Example 79, 4-({[2'-Piperazin-1-yl-6-(pyrazin-2-ylamino)-2,4'-bipyridin-4-yl]amino}carbonyl) benzoic acid] was tested, and the IC50 (JAK3 (aa 795-1124)) was 100 to 1000 nM, the IC50 [1] was 8 nM and the IC50 (JAK2 (aa 826-1132)) was less than 100 nM. The IC50 (LAD2 cells) was 140 nM.

With `O=C(Nc1cc(Nc2cnccn2)nc(-c2ccnc(N3CCNCC3)c2)c1)c1ccc(F)cc1` [Example 80, 4-Fluoro-N-[2'-piperazin-1-yl-6-(pyrazin-2-ylamino)-2,4'-bipyridin-4-yl]benzamide] the IC50 (JAK3 (aa 795-1124)) was 100 to 1000 nM, the IC50 [1, 2] was 6 nM and the IC50 (JAK2 (aa 826-1132)) was less than 100 nM. The IC50 (human JAK1 (aa 850-1154)) was greater than 1000 nM and the IC50 (LAD2 cells) was 290 nM.

With `O=C(Nc1cc(Nc2cnccn2)nc(-c2ccnc(N3CCNCC3)c2)c1)c1cccnc1` [Example 85, N-[2'-Piperazin-1-yl-6-(pyrazin-2-ylamino)-2,4'-bipyridin-4-yl]nicotinamide] the IC50 (JAK3 (aa 795-1124)) was 100 to 1000 nM, the IC50 [1] was 6 nM and the IC50 (JAK2 (aa 826-1132)) was less than 100 nM. The IC50 (human JAK1 (aa 850-1154)) was greater than 1000 nM and the IC50 (LAD2 cells) was 123 nM.

Work on `O=C(O)c1cccc(C(=O)Nc2cc(Nc3cnccn3)nc(-c3ccnc(N4CCNCC4)c3)c2)c1` [Example 88, 3-({[2'-Piperazin-1-yl-6-(pyrazin-2-ylamino)-2,4'-bipyridin-4-yl]amino}carbonyl) benzoic acid] yielded an IC50 (JAK3 (aa 795-1124)) of 100 to 1000 nM, an IC50 [1, 2] of 6 nM and an IC50 (JAK2 (aa 826-1132)) of less than 100 nM. It also gave an IC50 (LAD2 cells) of 81 nM.

Work on `O=C(O)C[C@H](Cc1ccccc1)C(=O)Nc1cc(Nc2cnccn2)nc(-c2ccnc(N3CCNCC3)c2)c1` [Example 100, (3S)-3-Benzyl-4-oxo-4-{[2'-piperazin-1-yl-6-(pyrazin-2-ylamino)-2,4'-bipyridin-4-yl]amino}butanoic acid] yielded an IC50 (JAK3 (aa 795-1124)) of 100 to 1000 nM, an IC50 (JAK2 (aa 826-1132)) of 100 to 1000 nM and an IC50 (human JAK1 (aa 850-1154)) greater than 1000 nM.
